ChEMBL document CHEMBL1147838, “Design, synthesis, and evaluation of phenanthridine derivatives targeting the telomerase RNA/DNA heteroduplex” (Bioorg Med Chem Lett, 2007)

Assay: Inhibition of telomerase by fluorescence based assay
Design: species or system Homo sapiens

IC50 | SMILES
63.1 µM | CC[n+]1c(-c2ccccc2)c2cc(NC(=O)CCCC(=O)O)ccc2c2ccc(NC(=O)CCCC(=O)O)cc21
> 80 µM | CC[n+]1c(-c2ccccc2)c2cc(NC(=O)CCCC(N)=O)ccc2c2ccc(NC(=O)CCCC(N)=O)cc21
23.3 µM | Nc1ccc2c(c1)c(-c1ccccc1)[n+](CCCCCC(=O)O)c1cc(N)ccc21
> 80 µM | CC[n+]1c(-c2ccccc2)c2cc(N)ccc2c2ccc(NC(=O)CCCC(=O)O)cc21
> 80 µM | CC[n+]1c(-c2ccccc2)c2cc(NC(=O)CCCC(=O)O)ccc2c2ccc(N)cc21

Further lines, the compound ahead of its results:

SMILES | IC50
CC[n+]1c(-c2ccccc2)c2cc(N)ccc2c2ccc(NC(=O)CCCC(N)=O)cc21 | 5.6 µM
NC(=O)c1ccc(C[n+]2c(-c3ccccc3)c3cc(N)ccc3c3ccc(N)cc32)cc1 | 2.9 µM
NC(=O)CCCCC[n+]1c(-c2ccccc2)c2cc(N)ccc2c2ccc(N)cc21 | 30.3 µM
CC[n+]1c(-c2ccccc2)c2cc(NC(=O)CCCC(N)=O)ccc2c2ccc(N)cc21 | 68.2 µM
Nc1ccc2c(c1)c(-c1ccccc1)[n+](Cc1ccc(C(=O)O)cc1)c1cc(N)ccc21 | 27.3 µM
